Holding throughout (type): cell-based, human
For one assay, the system named is TS543 neurospheres. As to the kind of experiment: Neurosphere growth, TS543 (mesenchymal). The note with it: 25 μM, 2 weeks. The source says: (§1) Neurosphere cultures. TS543, TS565 and TS676, which represent the mesenchymal, proneural and classical glioblastoma subtypes respectively, based on transcriptomic and genomic analysis, were obtained from C. Brennan through the Monoclonal Antibody Core Facility at Memorial Sloan Kettering Cancer Center (Brennan, C. et al., PLoS One 4(11):e7752, 2009; Pyonteck, S. M. et al., Nature Med. 19(10):1264-72, 2013; Rohle, D. et al., Science 340(6132):626-30, 2013) and maintained in NeuroCult™ NS-A Proliferation Kit (Human) (Stem Cell Technologies) according to manufacturer's instructions. (NeuroCult Medium was supplemented with 20 ng/mL FGF, 50 ng/mL EGF and 0.0002% Heparin). To prevent neurosphere attachment to the bottom of the cell culture plates, Poly 2-hydroxyethyl methacrylate (PHM) was used. 6-well plates were coated with 1 mL/well of 1% PHM in ethanol (w/v). The plates were air dried in a sterile environment overnight and washed once with PBS and they were kept in the fridge in a sterile environment until use. For passaging, neurospheres were triturated according to instructions and 5,000 cells were seeded in each well in 2 mL medium. For treatments with TG2 inhibitors, cells were inoculated in medium containing 25 μM TG2 inhibitor or DMSO control. 200 μL of medium containing the 25 μM TG2 inhibitor or DMSO was added every other day. At the end of 2 weeks, 20-50 random microscopic images were captured for each group. The average volume of each sphere image was determined using Image J by a person blinded for neurosphere lines and treatments and volumes were calculated from the area data and used for comparison.

The test system of the next assay is TS565 neurospheres. Description: Neurosphere growth, TS565 (proneural). The note with it: 25 μM, 2 weeks.
Excerpt: as §1

For another assay, the system named is SCC-13 cells. Description: Migration (scratch wound closure) assay, SCC-13 cells. Particulars: for cell migration (scratch wound closure): 0-12 h. On the procedure:
Migration assay. SCC13-Control-shRNA or SCC13-TG2-shRNA2 cells (2×10^6) were plated in 10 cm dishes and grown as monolayer cultures in spheroid medium until confluent. A 10 μl pipette tip was used to prepare areas void of cells and the dishes were washed to remove the dislodged cells. Images were collected, at 0-18 h after the scratch using the 10× objective, and the width of the opening was measured as a function of time as an index of cell migration potential.
Migration assay. Cells (2 million) were plated in 10 cm dishes and grown as monolayer cultures in spheroid medium until confluent. A 10 μl pipette tip was used to prepare areas void of cells and the dishes were washed to remove the dislodged cells. The ability of the cells to close the scratch wounds was monitored at 0-18 h after the scratch using the 10× objective, and the width of the opening was measured as a function of time as an index of cell migration (Adhikary, G. et al., PLoS One 8:e84324, 2013).

The test system of assay [1] is SCC-13, HaCaT, A431, TU159, HNSCC3 cells. As to the kind of experiment: Spheroid formation, matrigel invasion and migration assays in five cell lines (Example 11). Particulars: FIGS. 38-42. On the procedure:
SCC13 cells were grown for one week as monolayer in spheroid media; cells were harvested with 0.25% trypsin and plated with 2 mL of spheroid media at 15,000 cells per well in a 6-well dish. Cells were counted on day 0 and then treated with the indicated concentration of the indicated compound. Control was 0.1% DMSO. Cells were counted using a cell counter, 2 wells per treatment on each day. Values shown are mean±SEM, n=1.
HaCaT cells were grown for one week as a monolayer in spheroid media. Cells were harvested with 0.25% trypsin and plated with 2 mL of spheroid media at 15,000 cells per well in a 6-well dish. Cells were counted on day 0 and then treated with the indicated concentration of the indicated compound. Control was 0.1% DMSO. Cells were counted using a cell counter, 2 wells per treatment on each day. Values shown are mean±SEM, n=1.
A431 cells were grown for one week as a monolayer in spheroid media. Cells were harvested with 0.25% trypsin and plated with 2 mL of spheroid media at 15,000 cells per well in a 6-well dish. Cells were counted on day 0 and then treated with the indicated concentration of the indicated compound. Control was 0.1% DMSO. Cells were counted using a cell counter, 2 wells per treatment on each day. Values shown are mean±SEM, n=1.
TU159 cells were harvested with 0.25% trypsin and plated with 2 mL of spheroid media at 40,000 cells per well in a 6 well low-attachment plate. The cells were grown as spheroids for 8 days. On day 8 the spheroids were treated with the indicated concentration of the indicated compound. Control was 0.1% DMSO. The same 2 wells per treatment were counted on each day. Values shown are mean±SEM, n=1.
HNSCC3 cells were grown for one week as a monolayer in spheroid media. Cells were harvested with 0.25% trypsin and plated with 2 mL of spheroid media at 15,000 cells per well in a 6-well dish. Cells were counted on day 0 and then treated with the indicated concentration of the indicated compound. Control was 0.1% DMSO. The same 2 wells per treatment were counted on each day. Values shown are mean±SEM, n=1. […]

As for `C=CC(=O)NCCCC[C@H](NC(=O)OCc1ccccc1)C(=O)NCCOCCOCCNS(=O)(=O)c1cccc2c(N(C)C)cccc12` [NC9], the “sphere growth, TS543” value with TS543 neurospheres was “suppressed sphere growth”. Further, the “sphere growth, TS565” value in the assay on TS565 neurospheres is listed as “suppressed sphere growth”. The “cell migration (scratch wound closure)” value with SCC-13 cells was “inhibited cell migration”. Further, the cell migration result in the assay with SCC-13 cells (20 μM, 0-18 h) is on record as “reduced”. In assay [1], the “spheroid formation, matrigel invasion and migration” value (shortened to “spheroid formation”) was “inhibit spheroid formation, matrigel invasion and migration”.

Take `C=CC(=O)NCCCC[C@H](NC(=O)OCc1ccccc1)C(=O)N1CCN(S(=O)(=O)c2cccc3c(N(C)C)cccc23)CC1` [VA4, (S)-benzyl(6-acrylamido-1-(4-((5-(dimethylamino)naphthalen-1-yl)sulfonyl)piperazin-1-yl)-1-oxohexan-2-yl)carbamate]: in the assay with TS543 neurospheres, the “sphere growth, TS543” value was “suppressed sphere growth”. Also, the “sphere growth, TS565” value with TS565 neurospheres was “suppressed sphere growth”. Also, the “cell migration (scratch wound closure)” value in the assay with SCC-13 cells was “inhibited cell migration”. In addition, the “spheroid formation” value in assay [1] was “inhibit spheroid formation, matrigel invasion and migration”.

Regarding `C=CC(=O)NCCCC[C@H](NC(=O)OCc1ccccc1)C(=O)N1CCN(C(=O)c2cc3ccc(O)cc3oc2=O)CC1` [VA5, (S)-Benzyl(6-acrylamido-1-(4-(7-hydroxy-2-oxo-2H-chromene-3-carbonyl)piperazin-1-yl)-1-oxohexan-2-yl)carbamate], the “sphere growth, TS543” value with TS543 neurospheres was “promoted growth”. The “sphere growth, TS565” value in the assay on TS565 neurospheres is reported as “only mildly suppressive”. For the same compound, the “cell migration (scratch wound closure)” value in the assay with SCC-13 cells is “inhibited cell migration”. Moreover, the “spheroid formation” value in assay [1] is “inhibit spheroid formation, matrigel invasion and migration”.

The record behind these values is patent US10894777B2, “TG2 inhibitor piperazine compounds and uses thereof” (UNIVERSITY OF OTTAWA, priority 2016, dated 2021).
